Results taken from patent US10323026B2, “Heterocyclic compound” (Takeda Pharmaceutical Company Limited, priority 2016, dated 2019).

Each compound was assayed against T1, His-hMAGL (recombinant polyhistidine tagged human MAGL protein) (Homo sapiens, UniProt Q99685) (assay: Measurement of MAGL inhibitory activity (RapidFire-mass spectrometry of arachidonic acid produced from 2-arachidonylglycerol)). Conditions: test compound 10 μM; His-hMAGL; substrate 2-arachidonylglycerol; 60 min preincubation.
T1 construct: polyhistidine (His) (N); made in house; host or cells: E. coli BL21(DE3)
T1 sequence (Q99685 1-303): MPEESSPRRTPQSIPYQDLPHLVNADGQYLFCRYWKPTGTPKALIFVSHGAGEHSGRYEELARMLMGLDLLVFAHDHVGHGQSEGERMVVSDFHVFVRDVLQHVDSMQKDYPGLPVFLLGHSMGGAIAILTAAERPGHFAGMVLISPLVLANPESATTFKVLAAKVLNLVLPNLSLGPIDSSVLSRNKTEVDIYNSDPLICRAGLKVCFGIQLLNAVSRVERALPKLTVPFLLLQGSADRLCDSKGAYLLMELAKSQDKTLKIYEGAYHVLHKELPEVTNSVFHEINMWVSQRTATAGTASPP
Type: biochemical
Experimental: Furthermore, acetonitrile (50 μL) containing 3 μM arachidonic acid-d8 (Cayman Chemical Company) was added and the mixture was stirred.
The amount of arachidonic acid in the obtained enzyme reaction mixture was calculated by measuring by RapidFire-mass spectrometry and correcting by the amount of arachidonic acid-d8. High Throughput online solid phase extraction was performed using RapidFire 300™ system (Agilent Technologies, Inc.). Samples were loaded on SPE C4 cartridge (Agilent Technologies, Inc.) and desalted with 0.2 (v/v) % acetic acid (Wako Pure Chemical Industries, Ltd.) in ultrapure water/acetonitrile (70/30, v/v) at a flow rate of 1.5 mL/min, eluted at a flow rate of 0.5 mL/min with 0.2(v/v) % acetic acid dissolved in acetonitrile/ultrapure water (90/10, v/v), and injected into the mass spectrometry part. The injection needle was washed with ultrapure water (500 millisecond) and acetonitrile (500 millisecond) to minimize carry-over. […] The RapidFire300 system was controlled by RapidFire UI software version 3.6 (Agilent Technologies, Inc.).
The mass spectrometry of the resultant product was performed using API4000™ triple quadrupole mass spectrometer (AB SCIEX) equipped with an electrospray ion source (TurboIon Spray™) in a negative selected reaction monitoring (SRM) mode. The conditions of SRM are shown below. The parameters of the instrument were optimized as follows: capillary temperature 600° C., ion spray voltage −4.5 kV, collision gas 8, curtain gas 15 psi, ion source gas 1 60 psi, ion source gas 2 60 psi. The mass spectrometer was controlled by Analyst™ software version 1.5.1 (AB SCIEX). The peak area integration was analyzed using RapidFire integrator software version 3.6 (Agilent Technologies, Inc.).
MAGL inhibitory rate (%) was calculated according to the following calculation formula. (1-(arachidonic acid production amount of test compound addition group−arachidonic acid production amount of enzyme-free group)÷(arachidonic acid production amount of test compound-free group−arachidonic acid production amount of enzyme-free group))×100

Row | % inhibition (10 μM) [%] | Structure (SMILES)
1 | 100 | Cc1ccc(OC(C)C2CCN(C(=O)[C@H]3C[C@]4(COC(=O)N4)C3)CC2)c(F)c1 (stereo partly shown) [Example 45, (2s,4s)-2-((4-(1-(2-fluoro-4-methylphenoxy)ethyl)piperidin-1-yl)carbonyl)-7-oxa-5-azaspiro[3.4]octan-6-one]
2 | 100 | CC(Oc1ccc(C(F)(F)F)cc1F)C1CN(C(=O)[C@H]2C[C@]3(COC(=O)N3)C2)C1 (stereo partly shown) [Example 13, (2s,4s)-2-((3-(1-(2-fluoro-4-(trifluoromethyl)phenoxy)ethyl)azetidin-1-yl)carbonyl)-7-oxa-5-azaspiro[3.4]octan-6-one]

Same assay, conditions: test compound 10 μM; His-hMAGL; substrate 2-arachidonylglycerol; 60 min preincubation; 10 µM

Row | % inhibition (10 μM) [%] | Structure (SMILES)
3 | 101 | CC1(C2CCN(C(=O)[C@H]3C[C@]4(COC(=O)N4)C3)CC2)Cc2cc(C(F)(F)F)ccc2O1 (stereo partly shown) [Example 69, (2s,4s)-2-((4-(2-methyl-5-(trifluoromethyl)-2,3-dihydro-1-benzofuran-2-yl)piperidin-1-yl)carbonyl)-7-oxa-5-azaspiro[3.4]octan-6-one]
4 | 100 | CC(Oc1c(F)ccc(F)c1F)C1CCN(C(=O)[C@H]2C[C@]3(COC(=O)N3)C2)CC1 (stereo partly shown) [Example 56, (2s,4s)-2-((4-(1-(2,3,6-trifluorophenoxy)ethyl)piperidin-1-yl)carbonyl)-7-oxa-5-azaspiro[3.4]octan-6-one]
5 | 100 | CC(Oc1ccc(F)cc1F)C1CCN(C(=O)[C@H]2C[C@]3(COC(=O)N3)C2)CC1 (stereo partly shown) [Example 21, (2s,4s)-2-((4-(1-(2,4-difluorophenoxy)ethyl)piperidin-1-yl)carbonyl)-7-oxa-5-azaspiro[3.4]octan-6-one]
6 | 101 | Cc1cc(F)ccc1OC(C)C1CCN(C(=O)[C@H]2C[C@]3(COC(=O)N3)C2)CC1 (stereo partly shown) [Example 33, (2s,4s)-2-((4-(1-(4-fluoro-2-methylphenoxy)ethyl)piperidin-1-yl)carbonyl)-7-oxa-5-azaspiro[3.4]octan-6-one]
7 | 101 | CC(Oc1ccc(Cl)cc1F)C1CCN(C(=O)[C@H]2C[C@]3(COC(=O)N3)C2)CC1 (stereo partly shown) [Example 31, (2s,4s)-2-((4-(1-(4-chloro-2-fluorophenoxy)ethyl)piperidin-1-yl)carbonyl)-7-oxa-5-azaspiro[3.4]octan-6-one]

Same assay, conditions: test compound 10 μM; His-hMAGL; substrate 2-arachidonylglycerol; 60 min preincubation; read-out: % inhibition (10 μM)

Row | Structure (SMILES) | inhibition at 10 µM [%]
8 | Cc1cc(Cl)ccc1COC1CN(C(=O)[C@H]2C[C@]3(COC(=O)N3)C2)C1 [Example 92, (2s,4s)-2-((3-((4-chloro-2-methylbenzyl)oxy)azetidin-1-yl)carbonyl)-7-oxa-5-azaspiro[3.4]octan-6-one] | 100
9 | Cc1cc(COC2CN(C(=O)[C@H]3C[C@]4(COC(=O)N4)C3)C2)c(F)cc1C(F)(F)F [Example 115, (2s,4s)-2-((3-((2-fluoro-5-methyl-4-(trifluoromethyl)benzyl)oxy)azetidin-1-yl)carbonyl)-7-oxa-5-azaspiro[3.4]octan-6-one] | 100
10 | O=C1N[C@]2(CO1)C[C@H](C(=O)N1CC(CC(F)(F)c3ccc(C(F)(F)F)cc3F)C1)C2 [Example 91, (2s,4s)-2-((3-(2,2-difluoro-2-(2-fluoro-4-(trifluoromethyl)phenyl)ethyl)azetidin-1-yl)carbonyl)-7-oxa-5-azaspiro[3.4]octan-6-one] | 100
11 | O=C1N[C@]2(CO1)C[C@H](C(=O)N1CC(CC(F)(F)c3ccc(C(F)(F)F)c(Cl)c3)C1)C2 [Example 110, (2s,4s)-2-((3-(2-(3-chloro-4-(trifluoromethyl)phenyl)-2,2-difluoroethyl)azetidin-1-yl)carbonyl)-7-oxa-5-azaspiro[3.4]octan-6-one] | 100
12 | CC(Oc1ccc(Cl)cc1F)C1CCN(C(=O)[C@H]2C[C@]3(CCC(=O)N3)C2)CC1 (stereo partly shown) [Example 17, (2r,4s)-2-((4-(1-(4-chloro-2-fluorophenoxy)ethyl)piperidin-1-yl)carbonyl)-5-azaspiro[3.4]octan-6-one] | 100
13 | O=C1N[C@]2(CO1)C[C@H](C(=O)N1CC(/C=C(\F)c3ccc(C(F)(F)F)c(Cl)c3)C1)C2 [Example 111, (2s,4s)-2-((3-((Z)-2-(3-chloro-4-(trifluoromethyl)phenyl)-2-fluorovinyl)azetidin-1-yl)carbonyl)-7-oxa-5-azaspiro[3.4]octan-6-one] | 100
14 | O=C1N[C@]2(CO1)C[C@H](C(=O)N1CC(OCc3cc(C(F)(F)F)cc(C(F)(F)F)c3)C1)C2 [Example 113, (2s,4s)-2-((3-((3,5-bis(trifluoromethyl)benzyl)oxy)azetidin-1-yl)carbonyl)-7-oxa-5-azaspiro[3.4]octan-6-one] | 100
15 | O=C1N[C@]2(CO1)C[C@H](C(=O)N1CC(OCc3ccc(OC(F)(F)F)c(Cl)c3)C1)C2 [Example 116, (2s,4s)-2-((3-((3-chloro-4-(trifluoromethoxy)benzyl)oxy)azetidin-1-yl)carbonyl)-7-oxa-5-azaspiro[3.4]octan-6-one] | 100
16 | O=C1N[C@]2(CO1)C[C@H](C(=O)N1CC(OCc3cc(F)c(C(F)(F)F)cc3F)C1)C2 [Example 101, (2s,4s)-2-((3-((2,5-difluoro-4-(trifluoromethyl)benzyl)oxy)azetidin-1-yl)carbonyl)-7-oxa-5-azaspiro[3.4]octan-6-one] | 100

More lines, now with the values ahead:

Row | inhibition at 10 µM [%] | Structure (SMILES)
17 | 101 | O=C1N[C@]2(CO1)C[C@H](C(=O)N1CCC(COc3ccc(C(F)(F)F)cc3Cl)CC1)C2 [Example 19, (2s,4s)-2-((4-((2-chloro-4-(trifluoromethyl)phenoxy)methyl)piperidin-1-yl)carbonyl)-7-oxa-5-azaspiro[3.4]octan-6-one]
18 | 101 | O=C1N[C@]2(CO1)C[C@H](C(=O)N1CCC(COc3ccc(CCF)cc3F)CC1)C2 [Example 64, (2s,4s)-2-((4-((2-fluoro-4-(2-fluoroethyl)phenoxy)methyl)piperidin-1-yl)carbonyl)-7-oxa-5-azaspiro[3.4]octan-6-one]
19 | 100 | N#Cc1cc(Cl)ccc1OCC1CCN(C(=O)[C@H]2C[C@]3(COC(=O)N3)C2)CC1 [Example 129, 5-chloro-2-((1-(((2s,4s)-6-oxo-7-oxa-5-azaspiro[3.4]oct-2-yl)carbonyl)piperidin-4-yl)methoxy)benzonitrile]
20 | 100 | O=C1N[C@]2(CO1)C[C@H](C(=O)N1CC(COc3ccc(C(F)(F)F)cc3F)C1)C2 [Example 9, (2s,4s)-2-((3-((2-fluoro-4-(trifluoromethyl)phenoxy)methyl)azetidin-1-yl)carbonyl)-7-oxa-5-azaspiro[3.4]octan-6-one]
21 | 100 | Cc1cc(F)ccc1OC(C)C1CCN(C(=O)[C@H]2C[C@]3(COC(=O)N3)C2)CC1 (stereo partly shown) [Example 20, (2s,4s)-2-((4-(1-(4-fluoro-2-methylphenoxy)ethyl)piperidin-1-yl)carbonyl)-7-oxa-5-azaspiro[3.4]octan-6-one]
22 | 101 | CCC1(COc2ccc(F)cc2Cl)CCN(C(=O)[C@H]2C[C@]3(COC(=O)N3)C2)CC1 [Example 44, (2s,4s)-2-((4-((2-chloro-4-fluorophenoxy)methyl)-4-ethylpiperidin-1-yl)carbonyl)-7-oxa-5-azaspiro[3.4]octan-6-one]
23 | 100 | CCc1cc(OCC2CN(C(=O)[C@H]3C[C@]4(COC(=O)N4)C3)C2)c(F)cc1C(F)(F)F [Example 86, (2s,4s)-2-((3-((5-ethyl-2-fluoro-4-(trifluoromethyl)phenoxy)methyl)azetidin-1-yl)carbonyl)-7-oxa-5-azaspiro[3.4]octan-6-one]
24 | 101 | Cc1cc(OCC2CN(C(=O)[C@H]3C[C@]4(COC(=O)N4)C3)C2)c(F)cc1C(F)(F)F [Example 72, (2s,4s)-2-((3-((2-fluoro-5-methyl-4-(trifluoromethyl)phenoxy)methyl)azetidin-1-yl)carbonyl)-7-oxa-5-azaspiro[3.4]octan-6-one]
25 | 101 | CC(Oc1ccc(C(F)(F)F)cc1F)C1CCN(C(=O)[C@H]2C[C@]3(COC(=O)N3)C2)CC1 (stereo partly shown) [Example 35, (2s,4s)-2-((4-(1-(2-fluoro-4-(trifluororoethyl)phenoxy)ethyl)piperidin-1-yl)carbonyl)-7-oxa-5-azaspiro[3.4]octan-6-one]
